Results from patent US10738001B2, “Hydrofluoroolefins and methods of using same” (priority 2015, dated 2020).
Where two headings read alike, the source gives them in different places.

Experiments:
[1] = Log KOW (octanol/water partition coefficient) by HPLC, OECD Method 117; format: physicochemical
Protocol: (§1) In these Examples, Log KOWs, (octanol/water partition coefficients), were determined by HPLC using the method described in OECD Method 117. Atmospheric lifetimes were experimentally determined using a relative rate method to determine the hydroxyl radical rate constant.

[2] = Atmospheric lifetime by relative rate method (hydroxyl radical rate constant); format: physicochemical
Protocol: as §1

[3] = system: rats; experiment: toxicity screening study in rats, 4 Hr Inhalation LC50

| Compound | Log KOW (octanol/water partition coefficient measured by HPLC) ([1]; HPLC, OECD Method 117, average value for the E/Z product mixtures of Examples 1-3) | Log KOW (octanol/water partition coefficient measured by HPLC) [1] | chromatographic logP ([1]; octanol/water, HPLC, OECD Method 117, average value for the E/Z product mixtures of Examples 1-3, read-out: Log KOW (octanol/water partition coefficient measured by HPLC)) | atmospheric lifetime [2] [years] | 4 Hr Inhalation LC50 [3] | chromatographic logP [1] |
| --- | --- | --- | --- | --- | --- | --- |
| FC(=CC(F)(F)F)N(C(F)(F)F)C(F)(F)C(F)(F)F [Example 1, (E&Z)-1,3,3,3-tetrafluoro-N-(1,1,2,2,2-pentafluoroethyl)-N-(trifluoromethyl)prop-1-en-1-amine] | 4.57 | – | – | – | – | – |
| FC=C(F)N(C(F)(F)C(F)(F)F)C(F)(F)C(F)(F)C(F)(F)F [Example 8, N-(E&Z)-(1,2-difluorovinyl)-1,1,2,2,3,3,3-heptafluoro-N-(perfluoroethyl)propan-1-amine] | – | 4.97 | – | – | – | – |
| C=C(F)N1C(F)(F)C(F)(F)OC(F)(F)C1(F)F [Example 6, 2,2,3,3,5,5,6,6-octafluoro-4-(1-fluorovinyl)morpholine] | – | – | 4.33 | 0.095 | > 10,000 ppm | – |
| F/C(=C\C(F)(F)F)N(C(F)(F)F)C(F)(F)F [Example 3, (E&Z)-1,3,3,3-tetrafluoro-N,N-bis(trifluoromethyl)prop-1-en-1-amine] | – | – | – | 1.3 | – | 4.12 |
| FC(=CC(F)(F)F)N1C(F)(F)C(F)(F)OC(F)(F)C1(F)F [Example 2] | – | 4.80 | – | 0.89 | > 10,390 ppm | – |
| 4-(E&Z)-(1,2-difluorovinyl)-2,2,3,3,5,5,6,6-octafluoromorpholine [Example 4] | – | 4.31 | – | 0.078 | > 10,000 ppm | – |
